According to patent US8685942B2, “Sophorolipid analog compositions” (priority 2010, dated 2014):
In brackets after ≈: the same amount, converted by molar mass. Where two headings read alike, the source gives them in different places.

What was measured:
Eserichia coli = settings: cited from earlier work
Moraxella = settings: cited from earlier work
Ralstoniaeutropha = settings: cited from earlier work
Rhodoccocuserythropolis = settings: cited from earlier work
Salmonella choleraesuis = settings: cited from earlier work
Alternariatomatophilia = test: Antifungal MIC, 96 well microplate, spore suspension; format: cell-based
Procedure: (§1) Sophorolipid samples were dissolved in 5% ethanol solution to a final concentration of 5 mg/mL and used as a stock solution. The stock solution (100 μl) was added into a 96 well microplate and serially diluted from 2.5 mg/ml to 0.0024 mg/ml using culture medium. After serial dilution, 80 μl of fresh culture medium and 20 μl of spore suspension were added to each well and the plates were incubated for 7 days. The minimum inhibitory concentration (MIC) was determined to measure antifungal activity of sophorolipid-derived compounds. MIC values for antifungal activity were determined by absence of visible growth in the micro wells containing sophorolipid after 7 days of incubation.
as §1, §1

Botrytis cinerea = test: as above; format: cell-based
Procedure: as §1, §1, §1

A. alternate = test: as above; format: cell-based; settings: 168 h
Procedure: as §1, §1, §1

A. solani = test: as above; format: cell-based
Procedure: as §1, §1, §1

pathogens = test: Antifungal MIC screen, summary over the pathogen panel; format: cell-based; settings: of the eight pathogens of Tables 2-4
Procedure: as §1, with “The hydrogenated lactonic sophorolipids have antifungal activity, which were confirmed by experiment and observations. Sophorolipid” for “Sophorolipid”, “incubation. Natural and lactonic SLs were active against four pathogens, whereas hydrogenated lactonic and acidic SLs active against three and two pathogens respectively.” for “incubation.”
as §1, with “The acidic sophorolipid esters have antifungal activity, which were confirmed by experiment and observations. Sophorolipid” for “Sophorolipid”
as §1, with “The acidic sophorolipid amide derivatives have antifungal activity, which were confirmed by experiment and observations. Sophorolipid” for “Sophorolipid”

Fusarimoxysporium = test: Antifungal MIC, 96 well microplate, spore suspension; format: cell-based; settings: absence of visible growth after 7 days, diluted from 2.5 to 0.0024 mg/ml
Procedure: as §1, §1, §1

Phytophthoracapsici = test: as above; format: cell-based; settings: absence of visible growth after 7 days, diluted from 2.5 to 0.0024 mg/ml
Procedure: as §1, §1, §1

Phytophthorainfestans = test: as above; format: cell-based; settings: absence of visible growth after 7 days, diluted from 2.5 to 0.0024 mg/ml
Procedure: as §1, §1, §1

vaginal cell = settings: cited from earlier work
[1] = Alternariatomatophilia, absence of visible growth after 7 days, diluted from 2.5 to 0.0024 mg/ml
[2] = A. solani, absence of visible growth after 7 days, diluted from 2.5 to 0.0024 mg/ml

Row | Compound | MIC100 (Eserichia coli) [µg/mL] | MIC100 (Moraxella) [µg/mL] | MIC100 (Ralstoniaeutropha) [µg/mL] | MIC100 (Rhodoccocuserythropolis) [µg/mL] | MIC100 (Salmonella choleraesuis) [µg/mL] | number of pathogens active against (pathogens) | MIC (Phytophthoracapsici) [µg/mL] | further results
1 | CC(CCCCCC/C=C\CCCCCCCC(=O)O)OC1OC(CO)C(O)C(O)C1OC1OC(CO)C(O)C(O)C1O (centres unmarked) [SL-A-4] | 5000 (≈ 8030 µM) | 5000 (≈ 8030 µM) | 5000 (≈ 8030 µM) | 560 (≈ 899 µM) | 5000 (≈ 8030 µM) |  |  | 
2 | CC(CCCCCC/C=C\CCCCCCCC(=O)NCCO)OC1OC(CO)C(O)C(O)C1OC1OC(CO)C(O)C(O)C1O (centres unmarked) [SL-AM-1] |  |  |  |  |  |  |  | MIC (Alternariatomatophilia; [1]): 2500 µg/mL (≈ 3750 µM); MIC (Botrytis cinerea; absence of visible growth after 7 days, diluted from 2.5 to 0.0024 mg/ml): 2500 µg/mL (≈ 3750 µM)
3 | CC(CCCCCC/C=C\CCCCCCCC(=O)NCCN(C)C)OC1OC(CO)C(O)C(O)C1OC1OC(CO)C(O)C(O)C1O (centres unmarked) [SL-AM-3, (Z)-17-((4,5-dihydroxy-6-(hydroxymethyl)-3-((3,4,5-trihydroxy-6-(hydroxymethyl)tetrahydro-2H-pyran-2-yl)oxy)tetrahydro-2H-pyran-2-yl)oxy)-N-(2-(dimethylamino)ethyl)-octadec-9-enamide] |  |  |  |  |  | four |  | MIC (A. alternate): 1250 µg/mL (≈ 1800 µM); MIC (A. solani; Alternaria solani, 168 h): 150 µg/mL (≈ 216 µM); MIC (Alternariatomatophilia; 168 h): 300 µg/mL (≈ 433 µM); MIC (Botrytis cinerea; 168 h): 600 µg/mL (≈ 866 µM)
4 | CC(CCCCCC/C=C\CCCCCCCC(=O)NCC[N+](C)(C)C)OC1OC(CO)C(O)C(O)C1OC1OC(CO)C(O)C(O)C1O (centres unmarked) [SL-AM-4, (Z)-2-(17-((4,5-dihydroxy-6-(hydroxymethyl)-3-((3,4,5-trihydroxy-6 (hydroxyl methyl)tetrahydro-2H-pyran-2-yl)oxy)tetrahydro-2H-pyran-2-yl)oxy)octadec-9-enamido)-N,N,N-trimethylethanaminium iodide] |  |  |  |  |  | four |  | MIC (A. alternate; A. alternate, absence of visible growth after 7 days, diluted from 2.5 to 0.0024 mg/ml, read-out: MIC): 1250 µg/mL; MIC (A. solani; Alternaria solani, 168 h, A. solani, absence of visible growth after 7 days, diluted from 2.5 to 0.0024 mg/ml, read-out: MIC): 600 µg/mL; MIC (Alternariatomatophilia; 168 h, Alternariatomatophilia, absence of visible growth after 7 days, diluted from 2.5 to 0.0024 mg/ml, read-out: MIC): 150 µg/mL; MIC (Botrytis cinerea; 168 h, absence of visible growth after 7 days, diluted from 2.5 to 0.0024 mg/ml, read-out: MIC): 600 µg/mL
5 | COC(=O)CCCCCCC/C=C\CCCCCCC(C)OC1OC(CO)C(O)C(O)C1OC1OC(CO)C(O)C(O)C1O (centres unmarked) [SL-E-1, sophorolipid methyl ester] | 1670 (≈ 2620 µM) | 61.7 (≈ 96.9 µM) | 5000 (≈ 7850 µM) | 5000 (≈ 7850 µM) | 1670 (≈ 2620 µM) | three | 1250 (≈ 1960 µM) | MIC (A. solani; [2]): 2500 µg/mL (≈ 3930 µM); MIC (Fusarimoxysporium): 2500 µg/mL (≈ 3930 µM)
6 | CCCCOC(=O)CCCCCCC/C=C\CCCCCCC(C)OC1OC(CO)C(O)C(O)C1OC1OC(CO)C(O)C(O)C1O (centres unmarked) [SL-E-3] |  |  |  |  |  | three |  | MIC (A. solani; [2]): 1250 µg/mL (≈ 1840 µM); MIC (Alternariatomatophilia; [1]): 150 µg/mL (≈ 221 µM); MIC (Phytophthorainfestans): 1250 µg/mL (≈ 1840 µM)
7 | CCOC(=O)CCCCCCC/C=C\CCCCCCC(C)OC1OC(CO)C(O)C(O)C1OC1OC(COC(C)=O)C(O)C(O)C1O (centres unmarked) [SL-E-4] | 5000 (≈ 7220 µM) | 20.5 (≈ 29.6 µM) | 5000 (≈ 7220 µM) | 6.86 (≈ 9.9 µM) | 5000 (≈ 7220 µM) | one | 600 (≈ 866 µM) | 
8 | CCOC(=O)CCCCCCC/C=C\CCCCCCC(C)OC1OC(COC(C)=O)C(O)C(O)C1OC1OC(COC(C)=O)C(O)C(O)C1O (centres unmarked) [SL-E-5] | 5000 (≈ 6800 µM) | 61.7 (≈ 84 µM) | 5000 (≈ 6800 µM) | 5000 (≈ 6800 µM) | 5000 (≈ 6800 µM) | one | 600 (≈ 816 µM) | 
9 | CCCCOC(=O)CCCCCCC/C=C\CCCCCCC(C)OC1OC(CO)C(O)C(O)C1OC1OC(COC(C)=O)C(O)C(O)C1O (centres unmarked) [SL-E-6] |  |  |  |  |  | one | 600 (≈ 832 µM) | 
10 | CCCCOC(=O)CCCCCCC/C=C\CCCCCCC(C)OC1OC(COC(C)=O)C(O)C(O)C1OC1OC(COC(C)=O)C(O)C(O)C1O (centres unmarked) [SL-E-8] |  |  |  |  |  | one |  | MIC (A. solani; [2]): 1250 µg/mL (≈ 1640 µM)
11 | CCCCCCOC(=O)CCCCCCC/C=C\CCCCCCC(C)OC1OC(CO)C(O)C(O)C1OC1OC(CO)C(O)C(O)C1O (centres unmarked) [SL-E-9] | 1670 (≈ 2360 µM) | 1670 (≈ 2360 µM) | 5000 (≈ 7070 µM) |  | 5000 (≈ 7070 µM) |  |  | 
12 | CCOC(=O)CCCCCCC/C=C\CCCCCCC(C)O[C@@H]1O[C@H](COC(C)=O)[C@@H](O)[C@H](O)[C@H]1O[C@@H]1O[C@H](COC(C)=O)[C@@H](O)[C@H](O)[C@H]1O (some centres unmarked) [sophorolipid diacetate ethyl ester] |  |  |  |  |  |  |  | vaginal cell toxicity (vaginal cell): induces sufficient vaginal cell toxicity to raise concerns
